For assay [1], the target named is T1, Vanin-1 in SUIT-S2 cell line (Homo sapiens, UniProt O95497).
T1 construct: endogenous in cells; host or cells: SUIT-S2 cell line (ATCC # CRL1596)
T1 sequence (O95497 22-491): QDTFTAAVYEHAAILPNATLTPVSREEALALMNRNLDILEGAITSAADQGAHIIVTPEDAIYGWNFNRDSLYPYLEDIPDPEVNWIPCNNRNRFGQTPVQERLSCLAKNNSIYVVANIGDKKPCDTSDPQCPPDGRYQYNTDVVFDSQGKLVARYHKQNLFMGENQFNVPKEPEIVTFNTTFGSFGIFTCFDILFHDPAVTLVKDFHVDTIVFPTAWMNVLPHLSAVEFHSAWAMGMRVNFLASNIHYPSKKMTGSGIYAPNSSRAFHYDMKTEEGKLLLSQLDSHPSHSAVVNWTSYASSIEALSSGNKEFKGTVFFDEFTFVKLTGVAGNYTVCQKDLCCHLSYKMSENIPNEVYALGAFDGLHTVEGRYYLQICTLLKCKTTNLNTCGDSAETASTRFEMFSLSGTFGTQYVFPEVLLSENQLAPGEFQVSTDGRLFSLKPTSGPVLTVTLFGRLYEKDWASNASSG
The assay can be described thus: Vanin-1 cell-based mechanistic assay (fluorescence intensity, Pantothenate-AMC substrate). The conditions noted are these: 40000 cells per well, 2 hours incubation at 37° C., Pantothenate-AMC 30 μM, 30 min. The method, then: Vanin-1 Cell-Based Mechanistic Assay:
The cellular activity of the examples is measured in 96-well format based on fluorescence intensity assay using SUIT-S2 cell line (ATCC # CRL1596).
Cells are cultured at 37° C. with 5% CO2 to 80-90% confluence and then washed once with phosphate-buffered saline (PBS). Adherent cells are detached with PBS-EDTA and once in suspension 40000 cells are dispensed in 90 μl of PBS in 96-well black plates with clear bottoms. Threefold serial dilutions of test compounds are made in DMSO and then solubilized in PBS, dilution range 1:30. Cells and serial diluted test compounds (final concentrations 10 μM to 4.6 nM) or controls (PBS/0.3% DMSO) are incubated for 2 hours at 37° C. with 5% CO2. The reaction is initiated by the addition of the fluorogenic substrate, Pantothenate-AMC, at a concentration of 30 μM. After 30 minutes of incubation at 30° C. with gentle agitation, fluorescence intensity is measured at λex=350 nm and λem=450 nm with a fluorescence reader (BMG PHERAstar reader or equivalent).

Assay [2] addresses T2, Human recombinant Vanin-1 (VNN1) (Homo sapiens, UniProt O95497).
T2 construct: purchased Sino Biological Inc. 11662-H08H
T2 sequence (O95497 22-491): T1 sequence (O95497 22-491)
The assay can be described thus: Vanin-1 enzymatic assay (fluorescence intensity, Pantothenate-AMC substrate). The note with it: purified recombinant human Vanin-1 0.5 nM; 30 min preincubation at 30° C.; Pantothenate-AMC 30 μM, 60 min. It counts as biochemical. The method, then: Human recombinant Vanin-1 (VNN1) was purchased from Sino Biological Inc. (Catalog Number: 11662-H08H).
Measurement of VNN1 inhibition is performed in 384-well format based on fluorescence intensity assay. Purified recombinant human Vanin-1 (0.5 nM) and threefold serial diluted compounds in 3% DMSO (range of concentrations from 30 μM to 1.524 nM) or controls (3.0% DMSO) are incubated for 30 minutes at 30° C. with gentle agitation in assay buffer containing 100 mM potassium Phosphate Buffer (KPi), pH 7.5, 0.001% Bovine Serum Albumin (BSA), 0.5 mM dithiothreitol (DTT) and 0.0025% Brij-35. The reaction is initiated by the addition of the fluorogenic substrate, Pantothenate-AMC, at a concentration of 30 μM. After 60 minutes of incubation at 30° C. with gentle agitation, fluorescence intensity is measured at λex=350 nm and λem=450 nm with a fluorescence reader (BMG PHERAstar reader or equivalent).

Usually IC50 stands for the midpoint of a concentration-inhibition curve.

Turning to `C=CC(=O)CCNC(=O)[C@H](O)C(C)(C)CO` [Example 3, (R)-2,4-Dihydroxy-3,3-dimethyl-N-(3-oxo-pent-4-enyl)-butyramide], the IC50 in assay [1] was 1270 nM; in assay [2], 9250 nM.
On the same counts, the results for `CC(C)(CO)[C@@H](O)C(=O)NCCC(=O)/C=C/Cc1ccccc1` [Example 4, (R)-2,4-Dihydroxy-3,3-dimethyl-N-((E)-3-oxo-6-phenyl-hex-4-enyl)-butyramide] are 1190 nM and 2010 nM.
As for `CC(=O)/C=C/CCNC(=O)[C@H](O)C(C)(C)CO` [Example 5, (R)-2,4-Dihydroxy-3,3-dimethyl-N-((E)-5-oxo-hex-3-enyl)-butyramide], the figures for the IC50 in assay [1] and in assay [2] were 3200 nM and 3310 nM, respectively.
Taken in the same sequence, the figures for `CC(C)(CO)[C@@H](O)C(=O)NCC/C=C/C(=O)CCc1ccccc1` [Example 6] were 670 nM and 5790 nM.
`CC(C)(CO)[C@@H](O)C(=O)NCCC(=O)C(N)=O` [Example 7, (R)—N-(3-Carbamoyl-3-oxo-propyl)-2,4-dihydroxy-3,3-dimethyl-butyramide]: the IC50 in assay [1] stood at 1490 nM; in assay [2], 830 nM.
Taken in the same sequence, the figures for `CC(C)(CO)[C@@H](O)C(=O)NCCC(=O)C(=O)NC1CC1` [Example 8, (R)—N-(3-Cyclopropylcarbamoyl-3-oxo-propyl)-2,4-dihydroxy-3,3-dimethyl-butyramide] were 3540 nM and 1680 nM.
In the case of `CC(C)(CO)[C@@H](O)C(=O)NCCC(=O)C(=O)NCc1ccccc1` [Example 9, (R)—N-(3-Benzylcarbamoyl-3-oxo-propyl)-2,4-dihydroxy-3,3-dimethyl-butyramide], the IC50 in assay [1] was determined as 30 nM; in assay [2], 40 nM.
On the same counts, the results for `CC(C)(CO)[C@@H](O)C(=O)NCCC(=O)C(=O)NCc1ccccc1F` [Example 10, (R)—N-[3-(2-Fluoro-benzylcarbamoyl)-3-oxo-propyl]-2,4-dihydroxy-3,3-dimethyl-butyramide] are 25 nM and 30 nM.
On the same counts, the results for `CC(C)(CO)[C@@H](O)C(=O)NCCC(=O)C(=O)NCC1CCCCC1` [Example 11, (R)—N-[3-(Cyclohexylmethyl-carbamoyl)-3-oxo-propyl]-2,4-dihydroxy-3,3-dimethyl-butyramide] are 73 nM and 30 nM.
On the same counts, the results for `CC(C)(CO)[C@@H](O)C(=O)NCCC(=O)C(=O)NCCc1cccs1` [Example 14, (R)-2,4-Dihydroxy-3,3-dimethyl-N-[3-oxo-3-(2-thiophen-2-yl-ethylcarbamoyl)-propyl]-butyramide] are 90 nM and 50 nM.
In the case of `CC(C)(CO)[C@@H](O)C(=O)NCCC(=O)C(=O)NCc1cccc(OC(F)(F)F)c1` [Example 15, (R)-2,4-Dihydroxy-3,3-dimethyl-N-[3-oxo-3-(3-trifluoromethoxy-benzylcarbamoyl)-propyl]-butyramide], the IC50 in assay [1] turned out to be 140 nM; in assay [2] it was 50 nM.
`CC(C)(CO)[C@@H](O)C(=O)NCCC(=O)C(=O)NCc1ccc(F)cc1` [Example 17, (R)—N-[3-(4-Fluoro-benzylcarbamoyl)-3-oxo-propyl]-2,4-dihydroxy-3,3-dimethyl-butyramide]: the figures for the IC50 in assay [1] and in assay [2] were 20 nM and 30 nM, respectively.
Taken in the same sequence, the figures for `CC(C)(CO)[C@@H](O)C(=O)NCCC(=O)C(=O)NCc1cccc2ccccc12` [Example 19, (R)-2,4-Dihydroxy-3,3-dimethyl-N-{3-[(naphthalen-1-ylmethyl)-carbamoyl]-3-oxo-propyl}-butyramide] were 50 nM and 30 nM.
On the same counts, the results for `COc1cccc(CNC(=O)C(=O)CCNC(=O)[C@H](O)C(C)(C)CO)c1` [Example 22, (R)-2,4-Dihydroxy-N-[3-(3-methoxy-benzylcarbamoyl)-3-oxo-propyl]-3,3-dimethyl-butyramide] are 30 nM and 60 nM.
Taken in the same sequence, the figures for `CC(C)(CO)[C@@H](O)C(=O)NCCC(=O)C(=O)NCc1ccccc1C(F)(F)F` [Example 23, (R)-2,4-Dihydroxy-3,3-dimethyl-N-[3-oxo-3-(2-trifluoromethyl-benzylcarbamoyl)-propyl]-butyramide] were 50 nM and 70 nM.
Regarding `CC(C)(CO)[C@@H](O)C(=O)NCCC(=O)C(=O)NCc1ccc(S(C)(=O)=O)cc1` [Example 24, (R)-2,4-Dihydroxy-N-[3-(4-methanesulfonyl-benzylcarbamoyl)-3-oxo-propyl]-3,3-dimethyl-butyramide], the IC50 is less than 10 nM in assay [1] and 10 nM in assay [2].
On the same counts, the results for `CC(C)(CO)[C@@H](O)C(=O)NCCC(=O)C(=O)NCc1cccc(OCCNS(C)(=O)=O)c1` [Example 26, (R)-2,4-Dihydroxy-N-{3-[3-(2-methanesulfonylamino-ethoxy)-benzylcarbamoyl]-3-oxo-propyl}-3,3-dimethyl-butyramide] are 260 nM and 380 nM.
In the case of `CC(C)(CO)[C@@H](O)C(=O)NCCC(=O)C(=O)NCc1ccc(-c2ccccc2)cc1` [Example 28, (R)—N-{3-[(Biphenyl-4-ylmethyl)-carbamoyl]-3-oxo-propyl}-2,4-dihydroxy-3,3-dimethyl-butyramide], the IC50 in assay [1] came to 100 nM; in assay [2], 20 nM.
As to `CC(C)(CO)[C@@H](O)C(=O)NCCC(=O)C(=O)NCc1ccc(Br)cc1` [Example 31, (R)—N-[3-(4-Bromo-benzylcarbamoyl)-3-oxo-propyl]-2,4-dihydroxy-3,3-dimethyl-butyramide], the IC50 is 10 nM in assay [1] and less than 10 nM in assay [2].
In the case of `CC(C)(CO)[C@@H](O)C(=O)NCCC(=O)C(=O)NCc1ccc(C(=O)O)cc1` [Example 54, 4-{[4-((R)-2,4-Dihydroxy-3,3-dimethyl-butrylamino)-2-oxo-butyrylamino]-methyl}-benzoic acid], the IC50 in assay [2] worked out at 90 nM.
Same read-out and setting: the same measure for `CC(C)(CO)[C@@H](O)C(=O)NCCC(=O)C(=O)NCc1ccc(-c2ccc(C(=O)O)cc2)cc1` [Example 55, 4′-{[4-((R)-2,4-Dihydroxy-3,3-dimethyl-butyrylamino)-2-oxo-butyrylamino]-methyl}-biphenyl-4-carboxylic acid]: less than 10 nM.
The same measure, in the same setting: the same measure for `COC(=O)c1ccc(-c2ccc(CNC(=O)C(=O)CCNC(=O)[C@H](O)C(C)(C)CO)cc2)cc1` [Example 56, 4′-{[4-((R)-2,4-Dihydroxy-3,3-dimethyl-butyrylamino)-2-oxo-butyrylamino]-methyl}-biphenyl-4-carboxylic acid methyl ester]: 10 nM; for `CC(C)(CO)[C@@H](O)C(=O)NCCN(CCOc1ccccc1)C(=O)CCl` [Example 63, (R)—N-{2-[(2-Chloro-acetyl)-(2-phenoxy-ethyl)-amino]-ethyl}-2,4-dihydroxy-3,3-dimethyl-butyramide]: 3550 nM; for `CC(C)(CO)[C@@H](O)C(=O)NCCN(CCOc1ccc(S(C)(=O)=O)cc1)C(=O)CCl` [Example 64, (R)—N-(2-{(2-Chloro-acetyl)-[2-(4-methanesulfonyl-phenoxy)-ethyl]-amino}-ethyl)-2,4-dihydroxy-3,3-dimethyl-butyramide]: 3440 nM.
As to `COC(=O)c1ccc(OCCN(CCNC(=O)[C@H](O)C(C)(C)CO)C(=O)CCl)cc1` [Example 65, 4-(2-{(2-Chloro-acetyl)-[2-((R)-2,4-dihydroxy-3,3-dimethyl-butyrylamino)-ethyl]-amino}-ethoxy)-benzoic acid methyl ester], the IC50 in assay [2] came to 3990 nM.
Still for that read-out and setting: the same measure for `CC(C)(CO)[C@@H](O)C(=O)NCCN(CCOc1ccc(Br)cc1)C(=O)CCl` [Example 66]: 2870 nM.

Values taken from patent publication US9585891B2 (MERCK PATENT GMBH, priority 2012, dated 2017).
